From patent US8008322B2, “Substituted pyrazolopyridines, compositions containing them, method for the production thereof, and their use” (Aventis Pharma S.A., priority 2005, dated 2011)

Tests used:
human FAK = molecular target: T1, human FAK (Homo sapiens, UniProt Q05397); assay: FAK autophosphorylation inhibition, time-resolved fluorescence test (HTRF); type: biochemical; settings: 15 μM ATP, 1 hour at 37° C., read-out: FAK IC 50
T1 construct: The whole cDNA of human FAK, the N-terminal end of which has been labelled with histidine; made in house; host or cells: baculovirus expression system (pFastBac HTc)
Protocol: The inhibitory activity of the compounds on FAK is determined by measuring the inhibition of autophosphorylation of the enzyme using a time-resolved fluorescence test (HTRF).
The whole cDNA of human FAK, the N-terminal end of which has been labelled with histidine, was cloned in a pFastBac HTc baculovirus expression vector. The protein was expressed and purified to about 70% homogeneity.
The kinase activity is determined by incubating the enzyme (6.6 μg/mL) with different concentrations of test compound in a 50 mM Hepes pH=7.2, 10 mM MgCl2, 100 μm Na3VO4, 15 μM ATP buffer for 1 hour at 37° C. The enzymatic reaction is stopped by adding Hepes pH=7.0 buffer containing 0.4 mM KF, 133 mM EDTA, 0.1% BSA and the labelling is performed, for 1 to 2 hours at room temperature, by adding to this buffer an anti-Histidine antibody labelled with XL665 and a tyrosine phosphospecific monoclonal antibody conjugated to europium cryptate (Eu—K). The characteristics of the two fluorophores are available in G. Mathis et al., Anticancer Research, 1997, 17, pages 3011-3014. The energy transfer from the excited europium cryptate to the acceptor XL665 is proportional to the degree of autophosphorylation of FAK. The long-lasting signal specific for XL-665 is measured in a Packard Discovery plate counter. All the tests are performed in duplicate and the average of the two tests is calculated. The inhibition of the autophosphorylation activity of FAK with compounds of the invention is expressed as a percentage of inhibition relative to a control whose activity is measured in the absence of test compound. To calculate the percentage inhibition, the ratio [signal at 665 nm/signal at 620 nm] is considered.

human Tie2 = molecular target: T2, human Tie2 (Homo sapiens, UniProt Q02763); assay: Tie2 phosphorylation of PLC inhibition, FlashPlate radioactivity; type: biochemical; settings: GST-Tie2 intracellular domain 776-1124, substrate GST-PLC, 33P-ATP, one hour at 37° C.; read-out: TIE2 IC 50
T2 construct: the amino acids of the intracellular domain 776-1124; made in house; host or cells: baculovirus expression system (pFastBacGT)
Protocol: This sequence was introduced into a pFastBacGT baculovirus expression vector in the form of a GST fusion protein. The inhibitory effect of the molecules is determined in a test of phosphorylation of PLC with Tie2 in the presence of GST-Tie2 purified to about 80% homogeneity. The substrate is composed of the SH2-SH3 fragments of PLC expressed in the form of a GST fusion protein.
The kinase activity of Tie2 is measured in a MOPS 20 mM pH 7.2 buffer, containing 10 mM MgCl2, 10 mM MnCl2, 1 mM DTT, 10 mM of glycerophosphate. In a 96-well FlashPlate plate maintained on ice, a reaction mixture is deposited, composed of 70 μL of kinase buffer containing 100 ng of enzyme GST-Tie2 per well. Next, 10 μL of the test molecule diluted in DMSO to a maximum concentration of 10% are added. For a given concentration, each measurement is performed four times. […] After incubation for one hour at 37° C., the reaction is stopped by adding 1 volume (100 μl) of EDTA 200 mM. After removal of the incubation buffer, the wells are washed three times with 300 μL of PBS. The radioactivity is measured on a MicroBeta1450 Wallac.
The inhibition of the Tie2 activity is calculated and expressed as a percentage of inhibition relative to the control activity determined in the absence of compound.

human KDR enzyme = molecular target: T3, human KDR enzyme (Homo sapiens, UniProt P35968); assay: KDR substrate phosphorylation inhibition, scintillation technique; type: biochemical; settings: GST-KDR cytoplasmic domain, substrate SH2-SH3 fragment of PLCγ, 33P-ATP, one hour at 37° C.; read-out: KDR IC 50
T3 construct: The cytoplasmic domain of the human KDR enzyme was cloned in the form of a GST fusion protein; GST; made in house; host or cells: SF21 insect cells (baculovirus, pFastBac)
Protocol: The inhibitory effect of the compounds is determined in an in vitro test of phosphorylation of substrate with the enzyme KDR via a scintillation technique (96-well plate, NEN).
The cytoplasmic domain of the human KDR enzyme was cloned in the form of a GST fusion protein in the pFastBac baculovirus expression vector.
The KDR kinase activity is measured in a 20 mM MOPS, 10 mM MgCl2, 10 mM MnCl2, 1 mM DTT, 2.5 mM EGTA, 10 mM b-glycerophosphate, pH=7.2 buffer, in the presence of 10 mM MgCl2, 100 μm Na3VO4, 1 mM NaF. 10 μl of the compound are added to 70 μL of kinase buffer containing 100 ng of KDR enzyme at 4° C. The reaction is initiated by adding 20 μL of solution containing 2 μg of substrate (SH2-SH3 fragment of PLCγ expressed in the form of a GST fusion protein), 2 μCi of γ^33P[ATP] and 2 μm of cold ATP. After incubation for one hour at 37° C., the reaction is stopped by adding 1 volume (100 μl) of 200 mM EDTA. The incubation buffer is removed, and the wells are washed three times with 300 μL of PBS. The radioactivity in each well is measured using a Top Count NXT radioactivity counter (Packard).
The background is determined by measuring the radioactivity in four different wells containing radioactive ATP and the substrate alone.
A total activity control is measured in four different wells containing all the reagents (γ^33P-[ATP], KDR and substrate PLCγ), but in the absence of compound.
The inhibition of the KDR activity with the compound of the invention is expressed as a percentage of inhibition of the control activity determined in the absence of compound.

T2 sequence (Q02763 776-1124): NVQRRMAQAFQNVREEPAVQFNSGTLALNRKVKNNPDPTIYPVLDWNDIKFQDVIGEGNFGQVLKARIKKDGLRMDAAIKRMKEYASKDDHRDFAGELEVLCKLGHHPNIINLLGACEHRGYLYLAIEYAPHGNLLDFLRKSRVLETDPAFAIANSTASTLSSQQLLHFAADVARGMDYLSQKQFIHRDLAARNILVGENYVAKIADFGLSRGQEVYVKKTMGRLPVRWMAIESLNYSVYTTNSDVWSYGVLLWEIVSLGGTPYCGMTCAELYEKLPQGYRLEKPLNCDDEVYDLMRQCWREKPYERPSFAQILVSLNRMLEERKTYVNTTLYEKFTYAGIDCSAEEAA
T1 sequence (Q05397 whole entry): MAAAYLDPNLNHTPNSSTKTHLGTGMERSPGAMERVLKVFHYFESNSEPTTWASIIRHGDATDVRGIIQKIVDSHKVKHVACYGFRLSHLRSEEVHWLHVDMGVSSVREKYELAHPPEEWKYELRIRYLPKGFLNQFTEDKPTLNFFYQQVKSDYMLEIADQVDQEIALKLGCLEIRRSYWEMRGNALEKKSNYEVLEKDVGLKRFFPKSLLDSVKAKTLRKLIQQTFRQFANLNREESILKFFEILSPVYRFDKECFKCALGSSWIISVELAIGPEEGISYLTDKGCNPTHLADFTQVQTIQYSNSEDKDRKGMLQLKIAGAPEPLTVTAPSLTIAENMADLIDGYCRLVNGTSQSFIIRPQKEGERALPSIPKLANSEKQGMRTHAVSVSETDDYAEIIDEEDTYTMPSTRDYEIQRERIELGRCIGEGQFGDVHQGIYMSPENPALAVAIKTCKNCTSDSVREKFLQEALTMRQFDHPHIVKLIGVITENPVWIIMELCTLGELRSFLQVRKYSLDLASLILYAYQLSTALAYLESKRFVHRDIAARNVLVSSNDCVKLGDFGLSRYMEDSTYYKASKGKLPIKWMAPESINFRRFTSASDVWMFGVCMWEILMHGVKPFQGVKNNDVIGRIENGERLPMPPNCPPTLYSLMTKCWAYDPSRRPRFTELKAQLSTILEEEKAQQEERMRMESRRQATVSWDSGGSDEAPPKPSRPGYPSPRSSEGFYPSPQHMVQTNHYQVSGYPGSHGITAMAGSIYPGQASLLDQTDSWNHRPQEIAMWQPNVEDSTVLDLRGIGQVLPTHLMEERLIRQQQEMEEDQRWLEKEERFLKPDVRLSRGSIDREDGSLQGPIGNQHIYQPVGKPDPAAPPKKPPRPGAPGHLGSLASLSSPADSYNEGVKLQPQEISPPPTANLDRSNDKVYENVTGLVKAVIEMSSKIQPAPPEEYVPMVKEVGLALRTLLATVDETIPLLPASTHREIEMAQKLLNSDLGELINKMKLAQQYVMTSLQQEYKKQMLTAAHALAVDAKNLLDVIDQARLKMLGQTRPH
T3 sequence (P35968 786-1356 limits assumed): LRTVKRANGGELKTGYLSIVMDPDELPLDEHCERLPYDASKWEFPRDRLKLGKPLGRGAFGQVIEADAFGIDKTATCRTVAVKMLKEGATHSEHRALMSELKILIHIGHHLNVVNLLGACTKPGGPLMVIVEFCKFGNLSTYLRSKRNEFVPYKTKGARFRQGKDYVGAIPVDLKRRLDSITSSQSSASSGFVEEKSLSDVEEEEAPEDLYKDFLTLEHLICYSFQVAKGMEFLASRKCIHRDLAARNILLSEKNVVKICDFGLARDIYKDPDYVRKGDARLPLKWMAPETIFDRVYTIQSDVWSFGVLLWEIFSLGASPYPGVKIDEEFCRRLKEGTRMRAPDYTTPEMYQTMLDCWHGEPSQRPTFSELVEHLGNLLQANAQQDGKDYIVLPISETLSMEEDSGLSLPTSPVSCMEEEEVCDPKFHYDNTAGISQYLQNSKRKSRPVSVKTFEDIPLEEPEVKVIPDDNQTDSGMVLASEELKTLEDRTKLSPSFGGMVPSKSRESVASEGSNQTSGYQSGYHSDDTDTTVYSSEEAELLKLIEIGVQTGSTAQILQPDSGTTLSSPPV

Row | Compound | IC50 (human FAK) [nM] | IC50 (human Tie2) [nM] | IC50 (human KDR enzyme) [nM] | melting point [°C]
1 | Nc1n[nH]c2ccnc(-c3ccc(NC(=O)Nc4cc(C(F)(F)F)ccc4F)cc3)c12 [Example 3, 1-[4-(3-Amino-1H-pyrazolo[4,3-c]pyrid-4-yl)phenyl]-3-(2-fluoro-5-trifluoromethylphenyl)urea] | 73 | 5 | 33 | 
2 | COc1ccc(C(F)(F)F)cc1NC(=O)Nc1ccc(-c2cncc3[nH]nc(N)c23)cc1 [Example 38, 1-[4-(3-Amino-1H-pyrazolo[3,4-c]pyrid-4-yl)phenyl]-3-(2-methoxy-5-trifluoromethylphenyl]urea] |  |  |  | 210
3 | COc1ccc(C(F)(F)F)cc1NC(=O)Nc1ccc(-c2nccc3[nH]nc(N)c23)cc1 [Example 10, 1-[4-(3-Amino-1H-pyrazolo[4,3-c]pyrid-4-yl)phenyl]-3-(2-methoxy-5-trifluoromethylphenyl)urea] |  | 10 | 60 | 200
4 | Cc1ccc(F)cc1NC(=O)Nc1ccc(-c2nccc3[nH]nc(N)c23)cc1 [Example 34, 1-[4-(3-Amino-1H-pyrazolo[4,3-c]pyrid-4-yl)phenyl]-3-(5-fluoro-2-methylphenyl)urea] |  |  |  | > 265
5 | Nc1n[nH]c2nccc(-c3ccc(NC(=O)Nc4cc(C(F)(F)F)ccc4F)nc3)c12 [Example 2, 1-[5-(3-Amino-1H-pyrazolo[3,4-b]pyrid-4-yl)pyrid-2-yl]-3-(2-fluoro-5-trifluoromethylphenyl)urea] | 150 | 23 | 940 | 
6 | CC(=O)Nc1ccc(C(F)(F)F)cc1NC(=O)Nc1ccc(-c2nccc3[nH]nc(N)c23)cc1 [Example 11, N-(2-{3-[4-(3-Amino-1H-pyrazolo[4,3-c]pyrid-4-yl)phenyl]ureido}-4-trifluoromethylphenyl)acetamide] |  |  |  | 182
7 | Nc1n[nH]c2ccnc(-c3ccc(NC(=O)Nc4ccccc4)cc3)c12 [Example 8, 1-[4-(3-Amino-1H-pyrazolo[4,3-c]pyrid-4-yl]phenyl]-3-phenylurea] |  |  |  | 188
8 | COc1ccc(C(C)(C)C)cc1NC(=O)Nc1ccc(-c2nccc3[nH]nc(N)c23)cc1 [Example 29, 1-[4-(3-Amino-1H-pyrazolo[4,3-c]pyrid-4-yl)phenyl]-3-(5-tert-butyl-2-methoxyphenyl)urea] |  |  |  | 181
9 | Nc1n[nH]c2ccnc(-c3ccc(NC(=O)Nc4cc(C(F)(F)F)ccc4F)nc3)c12 [Example 4, 1-[5-(3-Amino-1H-pyrazolo[4,3-c]pyrid-4-yl)pyrid-2-yl]-3-(2-fluoro-5-trifluoromethylphenyl)urea] | 80 | 4 | 218 | 
10 | CCOc1ccc(C(F)(F)F)cc1NC(=O)Nc1ccc(-c2ccnc3[nH]nc(N)c23)cc1 [Example 14, 1-[4-(3-Amino-1H-pyrazolo[3,4-b]pyrid-4-yl)phenyl]-3-(2-ethoxy-5-trifluoromethylphenyl)urea] |  | 21 | 24 | 
11 | Nc1n[nH]c2cncc(-c3ccc(NC(=O)Nc4cc(C(F)(F)F)ccc4F)cc3)c12 [Example 7, 1-[4-(3-Amino-1H-pyrazolo[3,4-c]pyrid-4-yl)phenyl]-3-(2-fluoro-5-trifluoromethylphenyl)urea] |  | 9 |  | 196
12 | Nc1n[nH]c2ccnc(-c3ccc(NC(=O)Nc4cc(F)ccc4F)cc3)c12 [Example 32, 1-[4-(3-Amino-1H-pyrazolo[4,3-c]pyrid-4-yl)phenyl]-3-(2,5-difluorophenyl)urea] |  |  |  | 187
13 | Cc1ccc(F)c(NC(=O)Nc2ccc(-c3nccc4[nH]nc(N)c34)cc2)c1 [Example 27, 1-[4-(3-Amino-1H-pyrazolo[4,3-c]pyrid-4-yl)phenyl]-3-(2-fluoro-5-methylphenyl-)urea] |  |  |  | 195
14 | COc1ccc(C(F)(F)F)cc1NC(=O)Nc1ccc(-c2ccnc3[nH]nc(N)c23)cn1 [Example 6, 1-[5-(3-Amino-1H-pyrazolo[3,4-b]pyrid-4-yl)pyrid-2-yl]-3-(2-methoxy-5-trifluoromethylphenyl)urea] | 190 | 27 | 1860 | > 260
15 | COc1ccc(C(F)(F)F)cc1NC(=O)Nc1ccc(-c2ccnc3[nH]nc(N)c23)cc1 [Example 5, 1-[4-(3-Amino-1H-pyrazolo[3,4-b]pyrid-4-yl)phenyl]-3-(2-methoxy-5-trifluoromethylphenyl)urea] | 286 | 15 | 49 | > 260
16 | Nc1n[nH]c2nccc(-c3ccc(NC(=O)Nc4cc(C(F)(F)F)ccc4F)cc3)c12 [Example 1, 1-[4-(3-Amino-1H-pyrazolo[3,4-b]pyrid-4-yl)phenyl]-3-(2-fluoro-5-trifluoromethylphenyl)urea] | 264 |  |  | 
17 | COc1ccc(C(F)(F)F)cc1NC(=O)Nc1ccc(-c2nccc3[nH]nc(N)c23)cn1 [Example 9, 1-[5-(3-Amino-1H-pyrazolo[4,3-c]pyrid-4-yl)pyrid-2-yl]-3-(2-methoxy-5-trifluoromethylphenyl)urea] |  |  |  | 228
